Assay results as given in patent US20050245497A1, “Treatment of ophthalmic conditions” (priority 2004, published 2005).

Tests used:
[1] = test system: bacterial endotoxin induced exudative response; experiment: Bacterial endotoxin induced exudative response in rabbits, anterior chamber fluorophotometry of FITC-dextran; type: in vivo, New Zealand albino rabbits; settings: topical 4 mg/ml; for Anterior Chamber Fluorophotometer Results, Mean: Mean of 5 rabbits; for Anterior Chamber Fluorophotometer Results, Mean / Anterior Chamber Fluorophotometer Results: treated right eye, FITC-dextran fluorescence 90 minutes after endotoxin; for Anterior Chamber Fluorophotometer Results: 50 μL drop at 0, 1, 2 and 3 hours; for exudative response (result in words) / reduction in the exudative response: treated eye versus saline control eye; for exudative response (result in words): n=5; for reduction in the exudative response: n=5, p<0.03 (Wilcoxon signed rank test)
Protocol: Thirty New Zealand albino rabbits weighing between 2.5 and 3.0 kg were used for this study. The rabbits were treated in accordance with the guidelines of the Association for Research in Vision and Ophthalmology (ARVO). One eye of each animal was used for experimental purposes, the other serving as a control eye. Slit lamp and indirect funduscopic examination was performed on all eyes before and after euthanasia.
The rabbits were divided into six groups. Group 1 (n=5) received topical 4 mg/ml deoxycortisone acetate (Spectrum Chemical Corp). Group 2 (n=5) received topical 4 mg/ml 11 -deoxycorticosterone (Spectrum Chemical Corp). Group 3 (n=5) received topical 4 mg/ml 11-desoxycortisone (Spectrum Chemical Corp). Group 4 (n=5) received topical 4 mg/ml aldosterone (Farmabios, Italy). Group 5 (n=5) received topical 4 mg/ml deoxycorticosterone (Spectrum Chemical Corp). Group 6 (n=5) received topical fludrocortisone acetate (Farmabios, Italy).
The rabbits were anaesthetised with 1 ml of a mixture of ketamine hydrochloride (35 mg/kg, intramuscular) and xylazine hydrochloride (5 mg/kg, intramuscular). In all groups, drugs were applied topically to the right eye and saline was applied to the left eye four times (at time 0, 1, 2 and 3 hours). Drugs and saline were administered to the eye as a single 50 μL drop.
20 mg/ml dextran-isothiocyanate-fluorescein (FITC-dextran, Sigma) was prepared and a 20 mg/kg dose was injected into the marginal ear vein at time […].
Endotoxin (2.5 μg/kg) isolated from Salmonella typhimurium (Sigma) was injected into the same vein at the same time with the third drop occurring at time 2 hours.
The FITC-dextran concentration in the anterior chamber was determined using a prototype fluorophotometer (OcuMetrics, Mountain View, Calif.) 90 minutes after an endotoxin administration. This instrument has excitation wavelengths of approximately 410 to 490 nm, with emission wavelengths of approximately 520 to 630 nm. The fluorescence emitted by the FITC-dextran was determined in both left and right eyes.
Statistical analysis was performed, comparing the anterior chamber fluorescence measurements of the test and control eye of each animal. A paired Wilcoxon Signed Rank Test (StatXact) was used, with a one sided p-value.

[2] = test system: VEGF receptor Flk-1; experiment: FACS analysis of Flk-1 expression in choroidal endothelial cells; type: cell-based; settings: Example 1, FIG. 1; choroidal endothelial cells treated with PMA, compared to control cells
Protocol: (§1) To show the capacity of a mineralocorticoid, specifically fludrocortisone, to down-regulate receptors involved in biochemical pathways associated with oedema and exudative retinopathies, an assay was conducted looking at the activity of VEGF receptors Flk-1 and Flt-1 in choroidal endothelial cells. Flk-1 is known to be involved in cell proliferation whilst Flt-1 is involved in cell permeability.
(§2) The expression of Flk-1 and Flt-1 was measured, using fluorescence activated cell sorting (FACS) analysis, in untreated cells, cells treated with phorbolmyristate acetate (PMA), cells treated with PMA and then with the glucocorticoid triamcinolone acetonide (TA) and cells treated with PMA and then with the mineralocorticoid fludrocortisone. PMA is a model for pro-inflammatory cytokines and TA is known to […] the glucocorticoid receptor
(§3) The expression of Flk-1 and Flt-1 was also investigated in untreated choroidal endothelial cells, choroidal endothelial cells treated with Tumour Necrosis Factor-α (TNF-α) and choroidal endothelial cells treated with the mineralocorticoid fludrocortisone. TNF-α is a pro-inflammatory cytokine.

[3] = test system: VEGF receptor Flt-1; experiment: FACS analysis of Flt-1 expression in choroidal endothelial cells; type: cell-based
Protocol: as §1, §2, §3

Compound | Anterior Chamber Fluorophotometer Results, Mean [1] | Anterior Chamber Fluorophotometer Results ([1]; Rabbit 1) | Anterior Chamber Fluorophotometer Results ([1]; Rabbit 2) | Anterior Chamber Fluorophotometer Results ([1]; Rabbit 3) | Anterior Chamber Fluorophotometer Results ([1]; Rabbit 4) | Anterior Chamber Fluorophotometer Results ([1]; Rabbit 5) | exudative response (result in words) [1] | expression of Flk-1 [2] | expression of Flt-1 ([3]; Example 1, FIG. 1, choroidal endothelial cells treated with PMA) | reduction in the exudative response [1] | expression of Flt-1 ([3]; Example 2, FIG. 2, choroidal endothelial cells, compared to untreated control cells)
C[C@]12CCC(=O)C=C1CC[C@@H]1[C@@H]2[C@@H](O)C[C@]2(C=O)[C@@H](C(=O)CO)CC[C@@H]12 [AS, 11β-11,21-dihydroxy-3,20-dioxopregen-4-en-18-al] | 248 | 243 | 75 | 125 | 540 | 256 | very variable | – | – | – | –
CCCCCCCCCCCCCC(=O)O[C@@H]1[C@@H](C)[C@@]2(O)[C@@H](C=C(CO)C[C@]3(O)C(=O)C(C)=C[C@@H]23)[C@@H]2C(C)(C)[C@]12OC(C)=O [PMA, phorbolmyristate acetate] | – | – | – | – | – | – | – | increased | increased | – | –
C[C@]12CCC(=O)C=C1CC[C@@H]1[C@@H]2CC[C@@]2(C)[C@H]1CC[C@]2(O)C(=O)CO [11-DC, 17α,21-dihydroxypregn-4-ene-3,20-dione] | 331 | 696 | 578 | 141 | 147 | 92 | – | – | – | 37% | –
CC(=O)OCC(=O)[C@@]1(O)CC[C@H]2[C@@H]3CCC4=CC(=O)CC[C@]4(C)[C@@]3(F)[C@@H](O)C[C@@]21C [FA, fludrocortisone acetate] | 166 | 27 | 86 | 261 | 445 | 10 | – | – | – | 34% | –
C[C@]12CC[C@H]3[C@@H](CCC4=CC(=O)CC[C@@]43C)[C@@H]1CC[C@@H]2C(=O)CO [11 -deoxycorticosterone] | – | – | – | – | – | – | did not show a reduction in the exudative response | – | – | – | –
C[C@]12CC[C@H]3[C@@H](CCC4=CC(=O)CC[C@@]43C)[C@@H]1CC[C@@H]2C(=O)CO [DS, 21-hydroxypregn-4-ene-3,20-dione] | 174 | 340 | 245 | 59 | 86 | 140 | – | – | – | 37% | –
CC(=O)OCC(=O)[C@H]1CC[C@H]2[C@@H]3CCC4=CC(=O)CC[C@]4(C)[C@H]3CC[C@]12C [DA, 21-hydroxypregn-4-ene-3,20-dione 21 acetate] | 201 | 220 | 116 | 455 | 100 | 113 | – | – | – | 47% | –
TNF-α | – | – | – | – | – | – | – | – | – | – | higher levels of Flt-1
